The text below walks through data of patent EP3828160A1, “TREPROSTINIL DERIVATIVE COMPOUNDS AND METHODS OF USING SAME” (Corsair Pharma, Inc., priority 2014, dated 2016).

Data set [1] in a line: Human hepatocyte stability assay (Test 4). In kind it is in vitro ADME. As to conditions: cryopreserved hepatocytes, 0.5 uM test compound, 37°C, up to 240 minutes, 0.5 million cells/mL in William's Medium E, read-out: Test 4 T1/2. Here is the method:
(§1) Four assays on compounds were carried out by the following methods with the results shown in Table I. • (Test 1) Human liver microsomal stability assay was conducted by incubating 0.5 uM test compounds at 37°C for up to 45 minutes in 50 mM of potassium phosphate buffer (pH 7.4) containing 0.5 mg of microsomal protein and 50 µL of NADPH generating system (7.8 mg of glucose 6-phosphate, 1.7 mg of NADPH and 6 U of glucose 6-phosphate dehydrogenase per mL in 2% w/v of sodium bicarbonate). At 0, 5, 15, 30 and 45 min., an aliquot was taken, quenched with internal standard containing stop solution. No co-factor controls at 45 minutes were also prepared. After incubation, the samples were analyzed by LC-MS/MS. Peak area ratios of analyte to internal standard were used to calculate the intrinsic clearance. The intrinsic clearance (CLint) was determined from the first order elimination constant by non-linear regression. Formation of the active drug Compound A over the time course was also monitored by LC-MS/MS analysis. • (Test 2) Human plasma stability assay was conducted by incubating 0.5 uM test compounds at 37°C for up to 120 minutes in heparinated human plasma. At 0, 5, 15, 30, 60 and 120 […] min., an aliquot was taken, quenched with internal standard containing stop solution. After incubation, the samples were analyzed by LC-MS/MS. Peak area ratios of analyte to internal standard were used to calculate the half-life. Formation of the active drug Compound A over the time course was also monitored by LC-MS/MS analysis. • (Test 3) Human skin homogenate stability assay was conducted in a similar way as the human liver microsomal stability assay, by incubating 0.5 uM test compounds at 37°C for up to 45 minutes in 50 mM of potassium phosphate buffer (pH 7.4) containing 0.5 mg of human skin homogenate protein and 50 µL of NADPH generating system (7.8 mg of glucose 6-phosphate, 1.7 mg of NADPH and 6 U of glucose 6-phosphate dehydrogenase per mL in 2% w/v of sodium bicarbonate). At 0, 5, 15, 30 and 45 min., an aliquot was taken, quenched with internal standard containing stop solution. No co-factor controls at 45 minutes were also prepared. After incubation, the samples were analyzed by LC-MS/MS. Peak area ratios of analyte to internal standard were used to calculate the intrinsic clearance. The intrinsic clearance (CLint) was determined from the first order elimination constant by non-linear regression. Formation of the active drug Compound A over the time course was also monitored by LC-MS/MS analysis. • (Test 4) Human hepatocyte stability assay was conducted by incubating 0.5 uM test compound at 37°C for up to 240 minutes. Cryopreserved human hepatocytes were obtained from Celsis IVT (Baltimore, Maryland). Cells were thawed according to vendor's instructions and were suspended in William's Medium E to 0.5 million cells/mL. Test compounds were spiked into the cell suspension to initiate the reactions. At 0, 10,30,60, 120 and 240 min., an aliquot was taken, quenched with internal standard containing stop solution. After incubation, the samples were analyzed by LC-MS/MS. Peak area ratios of analyte to internal standard were used to calculate the intrinsic clearance. The intrinsic clearance (CLint) was determined from the first order elimination constant by non-linear regression. Formation of the active drug Compound A over the time course was also monitored by LC-MS/MS analysis.

Data set [2] in a line: Human plasma stability assay (Test 2). The class given is in vitro ADME. The settings on record: 0.5 uM test compound, 37°C, up to 120 minutes, heparinated human plasma, read-out: Test 2 T1/2. The procedure: as §1
Data set [3] is described as follows: Human liver microsomal stability assay (Test 1). The settings on record: liver microsomes, 0.5 uM test compound, 37°C, up to 45 minutes, 0.5 mg microsomal protein, NADPH generating system, pH 7.4, read-out: Test 1 T1/2. The class given is in vitro ADME. The procedure: as §1
For data set [4] the following is noted: treprostinil as the free acid, cited from earlier work.
Data set [5] is described as follows: Human skin homogenate stability assay (Test 3). The settings on record: 0.5 uM test compound, 37°C, up to 45 minutes, 0.5 mg human skin homogenate protein, NADPH generating system, pH 7.4, read-out: Test 3 T1/2. In kind it is in vitro ADME. Here is the method: as §1

Regarding `CCCCC[C@H](O)CC[C@@H]1[C@H]2Cc3cccc4c3C[C@H]2C[C@H]1OC(=O)CO4` [Compound 57, Treprostinil 2-hydroxy lactone], the half-life at 0.5 uM in data set [1], in data set [2] and in data set [3] was over 60 min each time.
Consider `CCCCC[C@H](O)CC[C@@H]1[C@H]2Cc3cccc(OCC(=O)O)c3C[C@H]2C[C@H]1O` [treprostinil], for which the absolute oral bioavailability result in data set [4] (oral) is recorded as “less than 10%”. In addition, the systemic half life result in data set [4] (due to significant metabolism) is reported as “very short”.
On to `CCCCCC(O)CCC1C(O)CC2Cc3c(cccc3OCC(=O)NCC(F)(F)F)CC21` (stereo not drawn) [Compound 14, 2-[2-Hydroxy-1-(3-hydroxy-octyl)-2,3,3a,4,9,9a-hexahydro-1H-cyclopenta[b]naphthalen-5-yloxy]-N-(2,2,2-trifluoro-ethyl)-acetamide], for which the half-life at 0.5 uM in data set [1] was under 15 min; in data set [5], over 60 min; in data set [2], over 60 min; in data set [3] it was under 15 min.
On to `CCCCCC(O)CCC1C(O)CC2Cc3c(cccc3OCC(=O)OC(C)C)CC21` (stereo not drawn) [Compound 20, [2-Hydroxy-1-(3-hydroxy-octyl)-2,3,3a,4,9,9a-hexahydro-1H-cyclopenta[b]naphthalen-5-yloxy]-acetic acid isopropyl ester], for which the half-life at 0.5 uM was under 15 min in data set [5], 31 to 60 min in data set [2] and under 15 min in data set [3].
Regarding `CCCCCC(O)CCC1C(OC(=O)OCC)CC2Cc3c(cccc3OCC(=O)OC)CC21` (stereo not drawn) [Compound 25, [2-Ethoxycarbonyloxy-1-(3-hydroxy-octyl)-2,3,3a,4,9,9a-hexahydro-1H-cyclopenta[b]naphthalen-5-yloxy]-acetic acid methyl ester], the half-life at 0.5 uM in data set [5] was 31 to 60 min; in data set [2], over 60 min; in data set [3] it was under 15 min.
In the case of `CCCCCC(O)CCC1C(O)CC2Cc3c(cccc3OCC(=O)NCCO)CC21` (stereo not drawn) [Compound 7, N-(2-Hydroxy-ethyl)-2-[2-hydroxy-1-(3-hydroxy-octyl)-2,3,3a,4,9,9a-hexahydro-1H-cyclopenta[b]naphthalen-5-yloxy]-acetamide], the figures for the half-life at 0.5 uM in data set [1], in data set [2] and in data set [3] were 15 to 30 min, over 60 min and 15 to 30 min, respectively.
As to `CCCCCC(O)CCC1C(O)CC2Cc3c(cccc3OCC(=O)NCC3CC3)CC21` (stereo not drawn) [Compound 2, N-Cyclopropylmethyl-2-[2-hydroxy-1-(3-hydroxy-octyl)-2,3,3a,4,9,9a-hexahydro-1H-cyclopenta[b]naphthalen-5-yloxy]-acetamide], the figures for the half-life at 0.5 uM in data set [1], in data set [2] and in data set [3] were 31 to 60 min, over 60 min and under 15 min, respectively.
As for `CCCCCC(O)CCC1C(O)CC2Cc3c(cccc3OCC(=O)N(C)CC(=O)OC)CC21` (stereo not drawn) [Compound 13, ({2-[2-Hydroxy-1-(3-hydroxy-octyl)-2,3,3a,4,9,9a-hexahydro-1H-cyclopenta[b]naphthalen-5-yloxy]-acetyl}-methyl-amino)-acetic acid methyl ester], the half-life at 0.5 uM in data set [1] is under 15 min; in data set [2], over 60 min; in data set [3], under 15 min.
